These results are taken from PMC8147781, “Discovery of Pyrrolidine-2,3-diones as Novel Inhibitors of P. aeruginosa PBP3” (Antibiotics, 2021).

Experiment [1] addresses T1, PBP3 of P. aeruginosa (PaPBP3) (Pseudomonas aeruginosa, UniProt G3XD46).
T1 construct: P. aeruginosa PBP3 (amino acids 40 to 563); His-tag; made in house; host or cells: E. coli BL21 (DE3) Rosetta, plasmid pET41_PBP-3
Briefly: S2dfluo fluorescence transpeptidase assay. The class given is biochemical. The settings on record: for IC50: 300 nM PaPBP3, 30 min preincubation, 37 °C, read-out: IC50 Determination with PaPBP3, S2dfluo Assay; for inhibition at 100 µM: read-out: PBP3 Inhibition at 100 µM (%). As to the method:
The assays were carried out in the presence of 5% DMSO and 0.01% Triton X100 to avoid the formation of colloidal structures and adsorption of protein and/or compounds to surfaces. The Z’-factor determined for the assay was 0.73 ± 0.28, indicating the suitability and robustness of the assay for high throughput screening (HTS) (Figure 1B,C).
The activity of soluble ^PaPBP3 (300 nM) was measured in the presence of 0.8 mM S2d, 1 mM D-alanine and 0.5 mM mBBr for 25 min by monitoring the increase in the fluorescence intensity of mBBr at Ex/Em: 394/490 nm using an Infinite M1000 microplate reader (Tecan, Männedorf, Switzerland). To test the effect of inhibitors, 100 µM or 0.8 to 100 µM of compounds diluted in 96% DMSO were incubated for 30 min and 450 rpm with 300 nM soluble PBP3. The incubation period was set to improve the binding of non-covalent inhibitors and 0.01% Triton X100 (Sigma-Aldrich, Taufkirchen, Germany) was added to prevent aggregation of compounds. The enzyme reaction was started by adding a substrate mix of 0.8 mM S2d and […]. The enzyme, compound and substrate mix were mixed 1:1, pipetted with a Liquidator 96 (Melter Toledo, Gießen, Germany) and the fluorescence intensity was directly monitored with an Infinite M1000 microplate reader (Tecan) at Ex/Em: 394/490 nm. The assay was performed in black, flat-bottom 96-well microplates (Greiner Bio-One, Kremsmünster, Austria) at 37 °C in Sorensen Phosphate Buffer (57 mM Na2HPO4 and 10 mM KH2PO4, pH 7.5 + 0.01% Triton X-100). The velocity of the PBP3 reaction was calculated in the presence of each concentration of compound and the velocity values were used to estimate IC50 by sigmoidal nonlinear regression, using Prism v.9 software (San Diego, CA, USA) and the velocity of the reaction at each concentration.

Experiment [2] concerns the target T1, PBP3 of P. aeruginosa (PaPBP3). Nature of the experiment: FP-Bocillin FL competition assay. The experiment is classed as binding. The settings on record: 30 min preincubation before Bocillin FL, 37 °C; for IC50: read-out: IC50 Determination with PaPBP3, FP-Bocillin FL Assay. As to the method:
Bocillin FL is a fluorescent penicillin V derivate used as a competitor for PBP inhibitors.
Fluorescence polarisation (FP) experiments were carried out as described before. To determine the binding of Bocillin FL to PBP, 200 nM of ^PaPBP3 was incubated for 30 min with 100 nM of Bocillin FL (Thermo Fisher Scientific, Waltham, MA, USA). The fluorescence polarisation signal of free Bocillin FL was monitored in a Pherastar microplate reader (BMG Labtech, Ortenberg, Germany) in the polarisation mode with Ex/Em: 485/520 nm excitation and emission filters. Millipolarisation (mP) units were calculated using the MARS data analysis software v30.40.R2 (BMG Labtech, Ortenberg, Germany). All the experiments were done in Sorensen buffer at 37 °C using flat-bottom, black 96-well plates. […] Bocillin FL was diluted in Sorensen buffer and added to the reaction and directly measured for 30 min at 37 °C. The FP was continuously measured in the presence and absence of compound and enzyme. […] The estimated IC50 values were established by sigmoidal nonlinear regression, using Prims v.8 software.

T1 sequence (G3XD46 40-563): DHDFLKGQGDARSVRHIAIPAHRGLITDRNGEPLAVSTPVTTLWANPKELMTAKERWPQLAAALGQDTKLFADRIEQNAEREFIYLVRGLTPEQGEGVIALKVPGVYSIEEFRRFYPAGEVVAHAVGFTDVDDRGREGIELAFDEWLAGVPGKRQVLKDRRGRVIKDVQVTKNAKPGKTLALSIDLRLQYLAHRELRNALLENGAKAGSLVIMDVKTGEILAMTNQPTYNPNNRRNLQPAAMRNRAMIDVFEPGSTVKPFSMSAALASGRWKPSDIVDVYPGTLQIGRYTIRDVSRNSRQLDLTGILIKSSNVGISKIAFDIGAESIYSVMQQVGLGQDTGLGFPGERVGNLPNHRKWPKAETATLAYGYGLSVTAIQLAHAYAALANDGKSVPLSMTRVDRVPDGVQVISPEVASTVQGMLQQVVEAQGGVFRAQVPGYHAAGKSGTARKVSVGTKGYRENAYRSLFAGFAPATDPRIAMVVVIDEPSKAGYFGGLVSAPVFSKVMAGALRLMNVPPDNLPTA

Usually IC50 stands for the midpoint of a concentration-inhibition curve. As a reminder, the inhibition is the relative decrease from the control value, in per cent. For `CCCCCCOc1cccc(N2C(=O)C(O)=C(C(=O)c3ccccc3)C2c2ccc(C(C)C)cc2)c1` (stereo not drawn) [Compound 2], in experiment [1], the IC50 worked out at 4 ± 6 µM and the inhibition at 100 µM came out at 101 ± 0.4%. Besides, the IC50 in experiment [2] was determined as 17 ± 9 µM.

As for `CCCCCCOc1cccc(N2C(=O)C(O)=C(C(=O)c3ccccc3)C2c2ccccc2F)c1` (stereo not drawn) [Compound 3], in experiment [1], the IC50 turned out to be 19 ± 1 µM and the inhibition at 100 µM is 100 ± 0.8%. Besides, in experiment [2], the “IC50 Determination with PaPBP3, FP-Bocillin FL Assay” value is recorded as “failed to inhibit Bocillin FL binding” and the IC50 was above 100 µM.

On to `CCOC(=O)c1ccc(N2C(=O)C(O)=C(S(=O)(=O)c3ccccc3)C2c2ccc(C(C)C)cc2)cc1` (stereo not drawn) [Compound 4], for which, in experiment [1], the IC50 came out at 24 ± 20 µM and the inhibition at 100 µM stood at 101%. Also, in experiment [2], the “IC50 Determination with PaPBP3, FP-Bocillin FL Assay” value is “failed to inhibit Bocillin FL binding” and the IC50 was above 100 µM.

For `COc1ccc(N2C(=O)C(O)=C(C(=O)c3ccc4c(c3)OCO4)C2c2ccc(Br)cc2)cc1` (stereo not drawn) [Compound 5], the IC50 in experiment [1] was determined as 61 ± 1 µM; in experiment [2], 69 ± 13 µM.

With `COc1ccc(C(=O)C2=C(O)C(=O)N(CCc3c(C)[nH]c4ccccc34)C2c2ccc(Cl)cc2)cc1` (stereo not drawn) [Compound 6], in experiment [1], the IC50 amounted to 63 ± 4 µM and the inhibition at 100 µM worked out at 92 ± 7%. The IC50 in experiment [2] is 9 ± 6 µM.

For `COc1ccc(C2=C(O)C(=O)N(c3nc(SCc4ccccc4)n[nH]3)C2c2ccccc2F)cc1` (stereo not drawn) [Compound 7], the half-maximal inhibitory concentration (IC50) in experiment [1] was 65 ± 19 µM; in experiment [2] it was 58 ± 21 µM. Also, in experiment [1], the inhibition at 100 µM worked out at 62%.

As to `COc1ccc(CN2C(=O)/C(=C(/C)O)C(=O)[C@@H]2COC(C)(C)C)c(OC)c1` [Compound 8], the IC50 in experiment [1] stood at 66 ± 16 µM; in experiment [2], 93 ± 18 µM.

In the case of `CSc1ccc(C2c3c(oc4cc(C)cc(C)c4c3=O)C(=O)N2CC2CCCO2)cc1` (stereo not drawn) [Compound 9], in experiment [1], the IC50 turned out to be 99 ± 1 µM and the inhibition at 100 µM came to 60%. Further, the IC50 in experiment [2] amounted to 18 ± 3 µM.
